Values after ≈ are worked out from the molar mass of the structure shown.

As a reminder, the MIC is the lowest concentration found to suppress growth. Higher therefore signals a less susceptible organism.

Test [1] has as its system vancomycin-resistant enterococci. Description: broth micro-dilution, mean geometric MIC. The test is classed as cell-based, Enterococcus faecium and Enterococcus faecalis. The conditions noted are these: enterococci, 24-hour incubation. (In general: Dilution methods test growth across graded concentrations, often in twofold steps.)
For test [2], the system named is vancomycin-susceptible enterococci. As to the kind of experiment: broth micro-dilution, mean geometric MIC. In kind it is cell-based, Enterococcus faecium and Enterococcus faecalis. The conditions noted are these: enterococci, 24-hour incubation.
Test [3] concerns Entercoccus faecium 180. Description: broth micro-dilution MIC. The test is classed as cell-based. The conditions noted are these: Entercoccus faecium 180. The protocol:
(§1) The formula I compounds have in vitro and in vivo activity against Gram-positive pathogenic bacteria. The MIC's were determined using a standard broth micro-dilution assay.

The test system of test [4] is Streptococcus pneumoniae P1. Description: broth micro-dilution MIC. In kind it is cell-based. The protocol:
as §1

The subject of test [5] is Staphylococcus haemolyticus 415. Description: broth micro-dilution MIC. In kind it is cell-based. The protocol: as §1
In test [6] the test system is Entercoccus faecium 2041. As to the kind of experiment: broth micro-dilution MIC. The test is classed as cell-based. The conditions noted are these: Entercoccus faecium 2041. The protocol:
as §1

The test system of test [7] is Enterococcus gallinarum 245. Description: broth micro-dilution MIC. The test is classed as cell-based. The conditions noted are these: Enterococcus gallinarum 245. The protocol:
as §1

Test [8] deals with Staphylococcus haemolyticus 105. Description: broth micro-dilution MIC. The test is classed as cell-based. As to the method: as §1
The test system of test [9] is Staphylococcus aureus SA1199B. The test is classed as cell-based. The protocol: (§2) The MIC's were determined using a standard broth micro-dilution assay.
Test [10] relates to Staphylococcus aureus S13E. The test is classed as cell-based. As to the method: as §2
Test [11] relates to Staphylococcus aureus SA1199A. As to the kind of experiment: broth micro-dilution MIC. The test is classed as cell-based. As to the method:
as §2

For test [12], the system named is Staphylococcus aureus SA1199. Description: broth micro-dilution MIC. In kind it is cell-based. As to the method: as §2
Test [13] has as its system Staphylococcus aureus 489. As to the kind of experiment: broth micro-dilution MIC. In kind it is cell-based. The protocol: as §2
Test [14] concerns Staphylococcus aureus X778. Description: broth micro-dilution MIC. The test is classed as cell-based. As to the method: as §2
Test [15] has as its system Streptococcus pyogenes C203. As to the kind of experiment: broth micro-dilution MIC. In kind it is cell-based. As to the method: as §2
The subject of test [16] is Staphylococcus aureus 446. Description: broth micro-dilution MIC. The test is classed as cell-based. The protocol: as §2
The subject of test [17] is Entercoccus faecium 276. As to the kind of experiment: broth micro-dilution MIC. In kind it is cell-based. The protocol:
as §2

The subject of test [18] is Staphylococcus aureus X400. As to the kind of experiment: broth micro-dilution MIC. The test is classed as cell-based. As to the method: as §2
Test [19] concerns Entercoccus faecium 180-1. As to the kind of experiment: broth micro-dilution MIC. In kind it is cell-based. The protocol: as §2
The subject of test [20] is Staphylococcus aureus 447. Description: broth micro-dilution MIC. In kind it is cell-based. The protocol: as §2

`CNC(CC(C)C)C(=O)NC1C(=O)NC(CC(N)=O)C(=O)NC2C(=O)NC3C(=O)NC(C(=O)NC(C(=O)O)c4cc(O)cc(O)c4-c4cc3ccc4O)C(OC3CC(C)(N)C(O)C(C)O3)c3ccc(c(Cl)c3)Oc3cc2cc(c3OC2OC(CO)C(O)C(O)C2OC2CC(C)(NCc3ccc(-c4ccc(OC)cc4)cc3)C(O)C(C)O2)Oc2ccc(cc2Cl)C1O` (stereo not shown) [Compound 54]: in [1], the “mean geometric MIC, Vancomycin Resistant Strains” value was found to be 1.7 µg/mL. Besides, the “mean geometric MIC, Vancomycin Sensitive Strains” value in [2] turned out to be 0.56 µg/mL. Further, the MIC was 1 µg/mL (≈ 0.559 µM) in test [3]; not above 0.06 µg/mL in test [4]; 1 µg/mL (≈ 0.559 µM) in [5]; not above 0.06 µg/mL in test [6]; 0.5 µg/mL (≈ 0.28 µM) in test [7]; 2 µg/mL (≈ 1.12 µM) in test [8]. In addition, the MIC in [9] was 1 µg/mL (≈ 0.559 µM); in test [10], 0.5 µg/mL (≈ 0.28 µM); in test [11], not above 0.06 µg/mL; in [12], 0.5 µg/mL (≈ 0.28 µM); in test [13], not above 0.06 µg/mL; in test [14], not above 0.06 µg/mL. The MIC was not above 0.06 µg/mL in test [15]; 1 µg/mL (≈ 0.559 µM) in test [16]; 1 µg/mL (≈ 0.559 µM) in [17]; not above 0.06 µg/mL in test [18]; not above 0.06 µg/mL in test [19].
In the case of `CNC(CC(C)C)C(=O)NC1C(=O)NC(CC(N)=O)C(=O)NC2C(=O)NC3C(=O)NC(C(=O)NC(C(=O)O)c4cc(O)cc(O)c4-c4cc3ccc4O)C(OC3CC(C)(N)C(O)C(C)O3)c3ccc(c(Cl)c3)Oc3cc2cc(c3OC2OC(CO)C(O)C(O)C2OC2CC(C)(NCc3ccccc3O)C(O)C(C)O2)Oc2ccc(cc2Cl)C1O` (stereo not shown) [Compound 169], the “mean geometric MIC, Vancomycin Resistant Strains” value in [1] came out at 19 µg/mL. Besides, the “mean geometric MIC, Vancomycin Sensitive Strains” value in [2] is 0.50 µg/mL. Besides, the minimum inhibitory concentration (MIC) in test [3] is 1 µg/mL (≈ 0.589 µM); in test [4] it was not above 0.06 µg/mL; in test [5] it was 4 µg/mL (≈ 2.35 µM); in [6], not above 0.06 µg/mL; in test [7] it was 4 µg/mL (≈ 2.35 µM); in test [8], 2 µg/mL (≈ 1.18 µM). Besides, the MIC in test [9] was 0.125 µg/mL (≈ 0.0736 µM); in [10], not above 0.06 µg/mL; in test [11], not above 0.06 µg/mL; in [20], 2 µg/mL (≈ 1.18 µM); in [12], not above 0.06 µg/mL; in [13] it was not above 0.06 µg/mL. Besides, the MIC in [14], in test [15], in test [17], in test [18] and in test [19] was not above 0.06 µg/mL in each case.
Regarding `CNC(CC(C)C)C(=O)NC1C(=O)NC(CC(N)=O)C(=O)NC2C(=O)NC3C(=O)NC(C(=O)NC(C(=O)O)c4cc(O)cc(O)c4-c4cc3ccc4O)C(OC3CC(C)(N)C(O)C(C)O3)c3ccc(c(Cl)c3)Oc3cc2cc(c3OC2OC(CO)C(O)C(O)C2OC2CC(C)(NCc3ccc(-c4ccc(OC)c(OC)c4)cc3)C(O)C(C)O2)Oc2ccc(cc2Cl)C1O` (stereo not shown) [Compound 215], the “mean geometric MIC, Vancomycin Resistant Strains” value in [1] amounted to 2.8 µg/mL. Moreover, the MIC in test [3] is not above 0.06 µg/mL; in test [4], not above 0.06 µg/mL; in test [5], 1 µg/mL (≈ 0.55 µM); in [8], 2 µg/mL (≈ 1.1 µM); in test [9] it was 1 µg/mL (≈ 0.55 µM); in test [10] it was 2 µg/mL (≈ 1.1 µM). Moreover, the minimum inhibitory concentration (MIC) was 0.5 µg/mL (≈ 0.275 µM) in test [11]; 0.5 µg/mL (≈ 0.275 µM) in test [20]; not above 0.06 µg/mL in [12]; 2 µg/mL (≈ 1.1 µM) in [13]; not above 0.06 µg/mL in test [14]; not above 0.06 µg/mL in test [15]. The MIC in test [16] was 0.5 µg/mL (≈ 0.275 µM); in [17], 2 µg/mL (≈ 1.1 µM); in [18] it was 0.5 µg/mL (≈ 0.275 µM); in test [19] it was not above 0.06 µg/mL.

These data come from patent publication US5840684A, “Glycopeptide antibiotic derivatives” (Eli Lilly and Company, priority 1995, dated 1998).
